Data published in US11034725B2, “Compositions and methods for treating cardiovascular disease” (Genentech, Inc., priority 2016, dated 2021).
Like-named read-outs stand apart in the source and are kept apart here. Bridge positions count the residues as written; N and C are the ends. Square brackets hold non-standard residues; d marks the D form. Peptide text beside a SMILES is read from it. * marks the point of attachment. Trp(6-Me) = Cc1ccc2c(C[C@H](N)C(=O)O)c[nH]c2c1; hArg = N=C(N)NCCCC[C@H](N)C(=O)O; Pentanoyl = CCCCC(=O)*; Ava = NCCCCC(=O)O

Tests used:
PCSK9 = PCSK9 (Homo sapiens, UniProt Q8NBP7); assay: PCSK9/EGF(A) TR-FRET binding assay; details: TR-FRET, read-out: PCSK9/EGF(A) IC50
PCSK9Δhelix = molecular target: T1, PCSK9Δhelix (Homo sapiens, UniProt Q8NBP7); assay: PCSK9Δhelix/Ab20 TR-FRET binding assay; details: TR-FRET, read-out: PCSK9Δhelix/Ab20 IC50
T1 construct: Human PCSK9 construct M1-Q692 with an engineered TEV site (residue deletion Y166, R167); made in house; host or cells: CHO
Method: The former was based on a TF-FRET assay to measure the association of the EGF(A) domain of the LDLR to PCSK9 (“PCSK9/EGF(A) binding assay”) whilst the latter was based on a TR-FRET assay to measure binding of Ab20 to PCSK9Δhelix (“PCSK9Δhelix/Ab20 binding assay”).
The ability of compounds to inhibit binding to PCSK9 was evaluated with a panel of time-resolved fluorescence resonance energy transfer (TR-FRET) binding assays. […] The PCSK9Δhelix/Ab20 binding assay evaluated the ability of compounds to compete with Ab20 for binding to the N-terminal groove region in a His-tagged, PCSK9Δhelix construct. […] Signal generation in the PCSK9 binding assays was dependent upon the binding interaction to bring into close proximity the His-tag on the PCSK9 and the Fc-tag on the ligand. Anti-His-APC was bound to the His-tag, and anti-Fc-europium was bound to the Fc-tag. When these two antibodies were in close proximity and were irradiated with light at 340 nm, the europium was excited and emitted energy at 615 nm. This energy was taken up by the APC and was emitted as light at 665 nm. Compounds that competed with the ligand reduced the energy transfer and thus the emission at 665 nm. In the His-EGFA-Fc molecule in the counterscreen, the two tags were always in close proximity, thus any reduction in emission at 665 nm was due to interference with the detection system.
Compounds were solubilized and dilutions were prepared in DMSO. […] The plate was centrifuged to mix the well contents and allowed to incubate for 30 min. […] The TR-FRET signal was read on a ViewLux reader (PerkinElmer) with excitation at 340 nm and emission at 615 and 665 nm with a 50-μs time delay between excitation and measurement of emission. The TR-FRET ratio was calculated as the fluorescence emission at 665 nm divided by the fluorescence emission at 615 nm. The normalized TR-FRET ratios were plotted as a function of the compound concentrations, and the IC50 values were determined using a 4-parameter logistic regression.
In black 1536-well assay plates (MaKO, Aurora® Microplates, Whitefish, Mont.), 40 nL of peptide in DMSO were preincubated with 2 μL His-tagged PCSK9 plus anti-His-allophycocyanin in assay buffer (50 mM Tris-HCl, pH 7.5, 150 mM NaCl, 2 mM CaCl2, 0.01% Tween®-20, 0.1% bovine gamma globulins, and protease inhibitor cocktail) for 30 min. Then 2 μL of Fc-tagged ligand and anti-Fc-europium in assay buffer were added and allowed to incubate for 2 h.

His-EGF(A)-Fc = His-EGF(A)-Fc TR-FRET counterscreen
[1] = Table 8D, disulfide-cyclized extension peptides
[2] = TR-FRET counterscreen, Table 8D, * = some inhibition at highest concentrations, not sufficient to fit an IC50
[3] = TR-FRET counterscreen, Table 8E, additional compounds

T1 sequence (Q8NBP7 with tags, fused parts or gaps limits assumed): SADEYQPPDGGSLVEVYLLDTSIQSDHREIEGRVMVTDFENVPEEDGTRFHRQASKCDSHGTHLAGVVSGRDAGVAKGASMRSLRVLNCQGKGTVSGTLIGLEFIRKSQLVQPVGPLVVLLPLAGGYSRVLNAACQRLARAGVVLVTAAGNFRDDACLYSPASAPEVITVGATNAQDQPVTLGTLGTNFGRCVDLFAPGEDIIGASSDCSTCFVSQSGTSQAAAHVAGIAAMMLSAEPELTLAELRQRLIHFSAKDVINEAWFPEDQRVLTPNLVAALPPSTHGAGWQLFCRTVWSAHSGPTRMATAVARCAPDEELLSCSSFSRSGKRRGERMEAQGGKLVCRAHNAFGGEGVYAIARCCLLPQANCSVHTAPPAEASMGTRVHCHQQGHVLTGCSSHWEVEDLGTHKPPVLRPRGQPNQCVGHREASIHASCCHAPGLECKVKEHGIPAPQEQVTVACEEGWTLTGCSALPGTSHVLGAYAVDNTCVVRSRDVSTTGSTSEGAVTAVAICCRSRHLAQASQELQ
T1 sequence (Q8NBP7 31-152 partner limits assumed): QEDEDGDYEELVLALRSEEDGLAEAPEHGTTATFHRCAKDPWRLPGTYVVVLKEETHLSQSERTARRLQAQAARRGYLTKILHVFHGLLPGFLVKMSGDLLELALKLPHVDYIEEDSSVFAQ
Sequence of PCSK9 (Q8NBP7 153-692): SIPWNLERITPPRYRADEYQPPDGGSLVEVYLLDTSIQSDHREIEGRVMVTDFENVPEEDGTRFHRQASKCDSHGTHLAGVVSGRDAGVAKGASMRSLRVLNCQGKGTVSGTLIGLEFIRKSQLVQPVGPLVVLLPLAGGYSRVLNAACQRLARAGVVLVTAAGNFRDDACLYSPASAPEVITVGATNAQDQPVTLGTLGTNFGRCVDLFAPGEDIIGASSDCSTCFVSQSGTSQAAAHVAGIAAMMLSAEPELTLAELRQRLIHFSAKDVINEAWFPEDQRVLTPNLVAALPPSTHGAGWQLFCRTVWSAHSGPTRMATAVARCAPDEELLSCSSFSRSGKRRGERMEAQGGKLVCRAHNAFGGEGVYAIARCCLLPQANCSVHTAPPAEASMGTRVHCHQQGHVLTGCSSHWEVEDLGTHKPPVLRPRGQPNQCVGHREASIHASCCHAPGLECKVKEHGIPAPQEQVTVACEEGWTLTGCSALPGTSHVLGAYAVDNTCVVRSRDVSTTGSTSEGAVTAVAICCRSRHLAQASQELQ
Sequence of PCSK9 (Q8NBP7 31-152 partner limits assumed): as the sequence (Q8NBP7 31-152 partner limits assumed) above

CC[C@H](C)[C@@H]1NC(=O)[C@H](CCCNC(=N)N)NC(=O)[C@H](CCCCN)NC(=O)[C@H](CC(C)C)NC(=O)[C@H](CC(N)=O)NC(=O)[C@H](Cc2c[nH]c3ccccc23)NC(=O)[C@H](CC(C)C)NC(=O)[C@@H](NC(=O)[C@H](Cc2c[nH]c3ccccc23)NC(C)=O)CSSC[C@@H](C(=O)N[C@@H](CCC(=O)O)C(=O)N[C@@H](Cc2ccc(O)cc2)C(N)=O)NC(=O)[C@H](CCC(N)=O)NC(=O)[C@H](CO)NC(=O)CNC1=O [Compound 65] (Ac-WCLWNLKRIGSQCEY-NH2; disulfide 2-13)
IC50 (PCSK9; [1]): > 50 µM | IC50 (PCSK9Δhelix; [1]): 7.1 µM | IC50 (His-EGF(A)-Fc; [2]): > 50 µM

CC[C@H](C)[C@@H]1NC(=O)[C@H](CCCNC(=N)N)NC(=O)[C@H](CCC(N)=O)NC(=O)[C@H](CC(C)C)NC(=O)[C@H](CC(N)=O)NC(=O)[C@H](Cc2c[nH]c3ccccc23)NC(=O)[C@@H]2CCCN2C(=O)[C@H](CC(C)C)NC(=O)[C@H](C)NC(=O)[C@@H](NC(C)=O)CSSC[C@@H](C(N)=O)NC(=O)[C@@H]2CCCN2C(=O)[C@H](CC(C)C)NC(=O)CNC1=O [Compound 79] (Ac-CALPWNLQRIGLPC-NH2; disulfide 1-14)
IC50 (PCSK9; [1]): > 50 µM | IC50 (PCSK9Δhelix; [1]): 1.53 µM | IC50 (His-EGF(A)-Fc; [2]): > 50 µM

Ac-DLMPWNLVRIGLPR-NH2 [Compound 160]
IC50 (PCSK9; Table 8E, additional compounds): ≥ 50 µM | IC50 (PCSK9Δhelix; Table 8E, additional compounds): 19 µM | IC50 (His-EGF(A)-Fc; [3]): ≥ 50 µM

Ac-DLMPWNAVRIGLLR-NH2 [Compound 61]
IC50 (PCSK9; Example 7): > 50 µM | IC50 (PCSK9Δhelix; Example 7): > 49.5 µM | IC50 (His-EGF(A)-Fc; counterscreen, Example 7): > 50 µM

Ac-PWNLVRIGL-NH2 [Compound 119]
IC50 (PCSK9; Example 7): > 50 µM | IC50 (PCSK9Δhelix; Example 7): ≥ 49.5 µM | IC50 (His-EGF(A)-Fc; counterscreen, Example 7): > 50 µM

CCCCC(=O)N[C@@H](Cc1c[nH]c2cc(C)ccc12)C(=O)N[C@@H](CC(N)=O)C(=O)N[C@@H](CC(C)C)C(=O)N[C@H](C(=O)N[C@@H](CCCNC(=N)N)C(=O)N[C@H](C(=O)NCC(=O)N[C@@H](CC(C)C)C(=O)N[C@H](C(=O)N[C@@H](CCCNC(=N)N)C(N)=O)[C@@H](C)O)[C@@H](C)CC)C(C)C [Compound 175] (Pentanoyl-[Trp(6-Me)]NLVRIGLTR-NH2)
IC50 (PCSK9; Table 8E, additional compounds): ≥ 50 µM | IC50 (PCSK9Δhelix; Table 8E, additional compounds): 39 µM | IC50 (His-EGF(A)-Fc; [3]): ≥ 50 µM

CCCCC(=O)N[C@@H](Cc1c[nH]c2ccccc12)C(=O)N[C@@H](CC(N)=O)C(=O)N[C@@H](CC(C)C)C(=O)N[C@H](C(=O)N[C@@H](CCCCNC(=N)N)C(=O)N[C@H](C(=O)NCC(=O)N[C@@H](CC(C)C)C(=O)N[C@H](C(=O)N[C@@H](CCCNC(=N)N)C(=O)O)[C@@H](C)O)[C@@H](C)CC)C(C)C [Compound 235, n-BuC(O)-WNLV(homoR)IGLTR] (Pentanoyl-WNLV[hArg]IGLTR-OH)
IC50 (PCSK9; Table 8E, additional compounds): ≥ 50 µM | IC50 (PCSK9Δhelix; Table 8E, additional compounds): 2.7 µM | IC50 (His-EGF(A)-Fc; [3]): ≥ 50 µM

CC[C@H](C)[C@@H]1NC(=O)[C@H](CCCNC(=N)N)NC(=O)[C@H](CCCCN)NC(=O)[C@H](CC(C)C)NC(=O)[C@H](CC(N)=O)NC(=O)[C@H](Cc2c[nH]c3ccccc23)NC(=O)[C@H](CC(C)C)NC(=O)[C@@H](NC(=O)[C@@H](N)Cc2c[nH]c3ccccc23)CSSC[C@@H](C(=O)N[C@@H](Cc2c[nH]c3ccccc23)C(=O)N[C@@H](Cc2ccccc2)C(N)=O)NC(=O)[C@H](CCC(N)=O)NC(=O)[C@H](CO)NC(=O)CNC1=O [Compound 89] (H-WCLWNLKRIGSQCWF-NH2; disulfide 2-13)
IC50 (PCSK9; [1]): 6.9 µM | IC50 (PCSK9Δhelix; [1]): 2.98 µM | IC50 (His-EGF(A)-Fc; [2]): 38.4 µM

CC[C@H](C)[C@@H]1NC(=O)[C@H](CCCCNC(=N)N)NC(=O)[C@H](CCC(N)=O)NC(=O)[C@H](CC(C)C)NC(=O)[C@H](CC(N)=O)NC(=O)[C@H](Cc2c[nH]c3ccccc23)NC(=O)[C@@H]2CCCN2C(=O)[C@H](CC(C)C)NC(=O)[C@H](CCCNC(=N)N)NC(=O)[C@@H](NC(C)=O)CSSC[C@@H](C(N)=O)NC(=O)[C@@H]2CCCN2C(=O)[C@H](CC(C)C)NC(=O)CNC1=O [Compound 117] (Ac-CRLPWNLQ[hArg]IGLPC-NH2; disulfide 1-14)
IC50 (PCSK9; [1]): > 50 µM | IC50 (PCSK9Δhelix; [1]): 0.334 µM | IC50 (His-EGF(A)-Fc; [2]): > 50 µM

CC[C@H](C)[C@@H]1NC(=O)[C@H](CCCNC(=N)N)NC(=O)[C@@H](CCC(N)=O)NC(=O)[C@H](CC(C)C)NC(=O)[C@H](CC(N)=O)NC(=O)[C@H](Cc2c[nH]c3ccccc23)NC(=O)[C@@H]2CCCN2C(=O)[C@H](CC(C)C)NC(=O)[C@H](CCCNC(=N)N)NC(=O)[C@@H](NC(C)=O)CSSC[C@@H](C(N)=O)NC(=O)[C@@H]2CCCN2C(=O)[C@H](CC(C)C)NC(=O)CNC1=O [Compound 103, Ac-CRLPWNLqRIGLPC-NH2] (Ac-CRLPWNL[dQ]RIGLPC-NH2; disulfide 1-14)
IC50 (PCSK9; [1]): > 50 µM | IC50 (PCSK9Δhelix; [1]): > 50 µM | IC50 (His-EGF(A)-Fc; [2]): > 50 µM

CCCCC(=O)N[C@@H](Cc1c[nH]c2ccccc12)C(=O)N[C@@H](CC(N)=O)C(=O)N[C@@H](CC(C)C)C(=O)N[C@H](C(=O)N[C@@H](CCCNC(=N)N)C(=O)N[C@H](C(=O)NCC(=O)N[C@@H](CC(C)C)C(=O)N[C@@H](C)C(=O)N[C@@H](CCCNC(=N)N)C(N)=O)[C@@H](C)CC)C(C)C [Compound 180] (Pentanoyl-WNLVRIGLAR-NH2)
IC50 (PCSK9; Table 8E, additional compounds): ≥ 50 µM | IC50 (PCSK9Δhelix; Table 8E, additional compounds): 12 µM | IC50 (His-EGF(A)-Fc; [3]): ≥ 50 µM

Ac-DLMPWNLVRIGLL-NH2 [Compound 46]
IC50 (PCSK9; Example 7): > 50 µM | IC50 (PCSK9Δhelix; Example 7): 14 µM | IC50 (His-EGF(A)-Fc; counterscreen, Example 7): > 50 µM

CC[C@H](C)[C@@H]1NC(=O)[C@H](CCCNC(=N)N)NC(=O)[C@H](CCC(N)=O)NC(=O)[C@@H](CC(C)C)NC(=O)[C@H](CC(N)=O)NC(=O)[C@H](Cc2c[nH]c3ccccc23)NC(=O)[C@@H]2CCCN2C(=O)[C@H](CC(C)C)NC(=O)[C@H](CCCNC(=N)N)NC(=O)[C@@H](NC(C)=O)CSSC[C@@H](C(N)=O)NC(=O)[C@@H]2CCCN2C(=O)[C@H](CC(C)C)NC(=O)CNC1=O [Compound 104, Ac-CRLPWNlQRIGLPC-NH2] (Ac-CRLPWN[dL]QRIGLPC-NH2; disulfide 1-14)
IC50 (PCSK9; [1]): > 50 µM | IC50 (PCSK9Δhelix; [1]): > 50 µM | IC50 (His-EGF(A)-Fc; [2]): > 50 µM

CC[C@H](C)[C@@H]1NC(=O)[C@H](CCCNC(=N)N)NC(=O)[C@H](CCC(N)=O)NC(=O)[C@H](CC(C)C)NC(=O)[C@H](CC(N)=O)NC(=O)[C@H](Cc2c[nH]c3ccccc23)NC(=O)[C@@H]2CCCN2C(=O)[C@H](C)NC(=O)[C@H](CCCNC(=N)N)NC(=O)[C@@H](NC(C)=O)CSSC[C@@H](C(N)=O)NC(=O)[C@@H]2CCCN2C(=O)[C@H](CC(C)C)NC(=O)CNC1=O [Compound 78] (Ac-CRAPWNLQRIGLPC-NH2; disulfide 1-14)
IC50 (PCSK9; [1]): > 50 µM | IC50 (PCSK9Δhelix; [1]): 5.56 µM | IC50 (His-EGF(A)-Fc; [2]): > 50 µM

CC[C@H](C)[C@@H]1NC(=O)[C@H](CCCNC(=N)N)NC(=O)[C@H](CCC(N)=O)NC(=O)[C@H](CC(C)C)NC(=O)[C@H](CC(N)=O)NC(=O)[C@H](Cc2c[nH]c3ccccc23)NC(=O)[C@@H]2CCCN2C(=O)[C@H](CC(C)C)NC(=O)[C@H](CCCNC(=N)N)NC(=O)[C@@H](NC(C)=O)CSSC[C@@H](C(N)=O)NC(=O)CCCCNC1=O [Compound 115] (Ac-CRLPWNLQRI[Ava]C-NH2; disulfide 1-12)
IC50 (PCSK9; [1]): > 50 µM | IC50 (PCSK9Δhelix; [1]): > 50 µM | IC50 (His-EGF(A)-Fc; [2]): > 50 µM

CC[C@H](C)[C@@H]1NC(=O)[C@H](CCCNC(=N)N)NC(=O)[C@H](CCC(N)=O)NC(=O)[C@H](CC(C)C)NC(=O)[C@H](CC(N)=O)NC(=O)[C@@H](Cc2c[nH]c3ccccc23)NC(=O)[C@@H]2CCCN2C(=O)[C@H](CC(C)C)NC(=O)[C@H](CCCNC(=N)N)NC(=O)[C@@H](NC(C)=O)CSSC[C@@H](C(N)=O)NC(=O)[C@@H]2CCCN2C(=O)[C@H](CC(C)C)NC(=O)CNC1=O [Compound 106] (Ac-CRLP[dW]NLQRIGLPC-NH2; disulfide 1-14)
IC50 (PCSK9; [1]): > 50 µM | IC50 (PCSK9Δhelix; [1]): > 50 µM | IC50 (His-EGF(A)-Fc; [2]): > 50 µM
